Values after ≈ are worked out from the molar mass of the structure shown.
T1: HsaSiglec+Unique (SLBRHsa, GST fusion), wild-type, Streptococcus gordonii strain Challis (Streptococcus gordonii, UniProt A8AWU7)
T1 construct: the Siglec and Unique domains of Hsa; made in house
T1 sequence (A8AWU7 220-449 limits assumed): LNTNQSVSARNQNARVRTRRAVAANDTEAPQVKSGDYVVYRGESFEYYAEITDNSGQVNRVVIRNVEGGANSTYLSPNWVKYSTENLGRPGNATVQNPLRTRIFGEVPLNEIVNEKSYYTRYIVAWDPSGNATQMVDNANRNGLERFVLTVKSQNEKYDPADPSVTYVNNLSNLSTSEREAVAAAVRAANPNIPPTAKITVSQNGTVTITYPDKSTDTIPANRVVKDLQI

T2: UB10712Siglec+Unique (SLBRUB10712, GST fusion), S. gordonii strain UB10712, variant E285R (Streptococcus mitis, UniProt A0A6I8WFK9)
T2 sequence (A0A6I8WFK9 1-210): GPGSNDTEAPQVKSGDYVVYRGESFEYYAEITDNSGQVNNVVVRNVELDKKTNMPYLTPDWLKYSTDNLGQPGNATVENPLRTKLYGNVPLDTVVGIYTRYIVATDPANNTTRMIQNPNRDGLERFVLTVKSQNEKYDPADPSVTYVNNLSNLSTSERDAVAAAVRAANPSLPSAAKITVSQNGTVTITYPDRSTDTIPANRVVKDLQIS

B1: GspBSiglec+Unique: wild-type Siglec and Unique domains of GspB from S. gordonii strain M99 (protein)
chain: DTERPVVNVPSEITVYRGESFEYFATVTDNSNAFDLAKTVVRWLYNNQPGRGTEWLQYSVTQVGNQLKVRIFGNVPIDTTIGDYTRYVVATDAAGNVNATQTEMGNAAVDKTSVNGQFKLIIRFRIKTPENTVFVNNPNQLTEVEKNLVREAVKKSNPDLRAQDVLNSNYVTGITVSNNGTTTITYRDGRKDIIDGSKFIDTR

Key:
[1] = molecular target: T1, HsaSiglec+Unique (SLBRHsa, GST fusion), wild-type, Streptococcus gordonii strain Challis; experiment: ELISA, biotinylated sialoglycan binding to immobilized GST-adhesin; conditions: ligands chosen for costructures
Description: (§1) 19. FIGS. 9A, 9B, 9C, and 9D show the impact of flexibility of sialoglycan binding by HsaBR. […] As a note, Hsa^S253 contains Ramachandran angles in the generously allowed region. FIGS. 9B, 9C, and 9D show dose response curves of wild-type and variant GST-HsaSiglec+Unique (500 nM) immobilized in 96-well plates and binding to 9B. the Neu5Ac-Gal disaccharide, 9C. sialyl-T antigen, and 9D. 3′sialyl-N-acetyllactosamine. Biotinylated sialoglycan ligands were added at the indicated concentrations. Binding is reported as the mean±standard deviation, with n=2.
(§2) 20. FIGS. 10A, 10B, 10C, 10D, and 10E show chimeragenesis of Hsa-like adhesins. Dose-response curves of 10A wild-type GST-SK678Siglec+Unique, 10B wild-type GST-UB10712Siglec+Unique, and 10C wild-type GST-HsaSiglec+Unique to five selected ligands. D and E. Dose-response curves of the chimeras D. GST-SK678^Hsa-loops and E. UB10712^Hsa-loops which contain the CD, EF, and FG loops of Hsa.

[2] = test system: UB10712Siglec+Unique (SLBRUB10712, GST fusion), S. gordonii strain UB10712, chimera +Hsa CD loop; experiment: ELISA, biotinylated sialoglycan binding to immobilized GST-adhesin chimera; design: species or system Streptococcus gordonii strain UB10712; conditions: +SLBRHsa CD loop; one-point, 1-2 μg/ml biotinylated glycans
Excerpt: (§3) 21. FIGS. 11A, and 11B show chimeras of SRR adhesins. […] Values correspond to the mean±standard deviation, with n=2 (wt) or n=3 (variants). […] Values correspond to the mean±standard deviation, with n=2 (wt) or n=3 (variants).

[3] = test system: UB10712Siglec+Unique (SLBRUB10712, GST fusion), S. gordonii strain UB10712, chimera +Hsa EF loop; experiment: as above; design: species or system Streptococcus gordonii strain UB10712; conditions: +SLBRHsa EF loop; one-point, 1-2 μg/ml biotinylated glycans
Excerpt: as §3

[4] = test system: UB10712Siglec+Unique (SLBRUB10712, GST fusion), S. gordonii strain UB10712, chimera +Hsa FG loop; experiment: as above; design: species or system Streptococcus gordonii strain UB10712; conditions: +SLBRHsa FG loop; one-point, 1-2 μg/ml biotinylated glycans
Excerpt: as §3

[5] = molecular target: SK678Siglec+Unique (SLBRSK678, GST fusion), wild-type, Streptococcus sanguinis strain SK678; experiment: ELISA, biotinylated sialoglycan binding to immobilized GST-adhesin; conditions: ELISA curves
Excerpt: as §2

[6] = test system: SK678Siglec+Unique (SLBRSK678, GST fusion), S. sanguinis strain SK678, chimera +Hsa CD loop; experiment: ELISA, biotinylated sialoglycan binding to immobilized GST-adhesin chimera; design: species or system Streptococcus sanguinis strain SK678; conditions: +SLBRHsa CD loop; one-point, 1-2 μg/ml biotinylated glycans
Excerpt: as §3

[7] = test system: SK678Siglec+Unique (SLBRSK678, GST fusion), S. sanguinis strain SK678, chimera +Hsa EF loop; experiment: as above; design: species or system Streptococcus sanguinis strain SK678; conditions: +SLBRHsa EF loop; one-point, 1-2 μg/ml biotinylated glycans
Excerpt: as §3

[8] = test system: SK678Siglec+Unique (SLBRSK678, GST fusion), S. sanguinis strain SK678, chimera +Hsa FG loop; experiment: as above; design: species or system Streptococcus sanguinis strain SK678; conditions: +SLBRHsa FG loop; one-point, 1-2 μg/ml biotinylated glycans
Excerpt: as §3

[9] = molecular target: SK678Siglec+Unique (SLBRSK678, GST fusion), S. sanguinis strain SK678, variant E298R; experiment: ELISA, biotinylated sialoglycan binding to immobilized GST-adhesin; conditions: for EC50: ELISA curves; for binding selectivity: ELISA
Description: (§4) DNA encoding wild-type and variant adhesins were cloned into pGEX-3X. […] DNA encoding adhesin chimeras were cloned into pGEX-3X.
(§5) The pGEX vectors encode an N-terminal glutathione S-transferase (GST) affinity tag, which was used for purification. Individual GST-Siglec+Unique fusions were expressed and purified using glutathione-sepharose, and the binding of biotinylated glycans to immobilized GST-binding regions was performed.

[10] = molecular target: SK678Siglec+Unique (SLBRSK678, GST fusion), S. sanguinis strain SK678, variant Q367D; experiment: as above; conditions: ELISA curves
Description: Dose response curves of biotin-glycan binding to immobilized variant SLBRs (500 nM). […] Measurements were performed using 500 nM of immobilized GST-adhesin and the indicated concentrations of each ligand are shown as the mean±SD (n=2).
as §4, §5

[11] = molecular target: T2, UB10712Siglec+Unique (SLBRUB10712, GST fusion), S. gordonii strain UB10712, variant E285R; experiment: as above
Description: as §4, §5

[12] = ELISA: sialoglycan binding spectrum of wild-type, chimeric and variant adhesins (several ligands, in words); conditions: 500 nM immobilized GST-adhesin, compared with wild-type/parent
Description: as §1, §2, §3

[13] = previously reported glycan binding/array; cited from earlier work
human plasma proteins = experiment: Far-western blotting of human plasma proteins with GST-binding regions; conditions: 15 nM probe
Description: Each Far Western was performed at least twice, with a representative blot shown.
Far-western blotting of human plasma proteins using the indicated GST-binding regions (15 nM) as probes was performed as described.

Molecule | ligand affinity class [1] | relative binding strength (A450) [2] | relative binding strength (A450) [3] | relative binding strength (A450) [4] | EC50 [5] [µg/mL] | relative binding strength (A450) [6] | relative binding strength (A450) [7] | relative binding strength (A450) [8] | EC50 [9] [µg/mL] | EC50 [10] [µg/mL] | binding selectivity [11] | binding selectivity [9] | change of sialoglycan binding and selectivity [12] | reported sialoglycan selectivity of wild-type adhesin [13] | plasma glycoprotein bound (human plasma proteins)
CC(=O)N[C@H]1[C@H]([C@H](O)[C@H](O)CO)O[C@@](O[C@H]2[C@@H](O)[C@@H](CO)O[C@@H](O[C@H]3[C@H](O)[C@@H](NC(C)=O)C(O)O[C@@H]3CO)[C@@H]2O)(C(=O)O)C[C@@H]1O (some centres unmarked) [3′sLn, Neu5Acα2-3Galβ1-4GlcNAc] | intermediate-affinity | ++ (A450 = 0.7-1) | +++ (A450 > 1) | ++ (A450 = 0.7-1) | 0.85 (≈ 1.26 µM) | − (A450 < 0.3) | ++ (A450 = 0.7-1) | + (A450 = 0.3-0.7) | 2.60 (≈ 3.85 µM) | >5 | – | – | – | – | –
CC(=O)N[C@H]1[C@H]([C@H](O)[C@H](O)CO)O[C@@](O[C@H]2[C@@H](O)[C@@H](CO)O[C@@H](O[C@H]3[C@H](O)[C@@H](NC(C)=O)C(O)O[C@@H]3COS(=O)(=O)O)[C@@H]2O)(C(=O)O)C[C@@H]1O (stereo partly drawn) [6S-3′sLn] | – | – | – | – | – | – | – | – | – | – | became selective | became selective | – | – | –
CC(=O)N[C@H]1[C@H]([C@H](O)[C@H](O)CO)O[C@@](O[C@H]2[C@@H](O)[C@@H](CO)O[C@@H](O[C@H]3[C@H](O[C@@H]4O[C@@H](C)[C@@H](O)[C@@H](O)[C@@H]4O)[C@@H](NC(C)=O)C(O)O[C@@H]3COS(=O)(=O)O)[C@@H]2O)(C(=O)O)C[C@@H]1O (stereo partly drawn) [6S-sLe^X] | low-affinity | +++ (A450 > 1) | +++ (A450 > 1) | + (A450 = 0.3-0.7) | 0.63 (≈ 0.699 µM) | − (A450 < 0.3) | ++ (A450 = 0.7-1) | − (A450 < 0.3) | 0.06 (≈ 0.0666 µM) | >5 | became selective | became selective | – | – | –
CC(=O)N[C@H]1[C@H]([C@H](O)[C@H](O)CO)O[C@@](O[C@H]2[C@@H](O)[C@@H](CO)O[C@@H](O[C@H]3[C@H](O)[C@@H](CO)OC(O)[C@@H]3NC(C)=O)[C@@H]2O)(C(=O)O)C[C@@H]1O (some centres unmarked) [sLe^C, Neu5Acα2-3Galβ1-3GlcNAc] | high-affinity | − (A450 < 0.3) | + (A450 = 0.3-0.7) | + (A450 = 0.3-0.7) | >5 | − (A450 < 0.3) | − (A450 < 0.3) | − (A450 < 0.3) | >5 | >5 | – | – | – | – | –
CC(=O)N[C@H]1[C@H]([C@H](O)[C@H](O)CO)O[C@@](O[C@H]2[C@@H](O)[C@@H](CO)O[C@@H](O[C@H]3[C@@H](O)[C@@H](CO)OC(O)[C@@H]3NC(C)=O)[C@@H]2O)(C(=O)O)C[C@@H]1O (some centres unmarked) [sTa, Neu5Acα2-3Galβ1-3GalNAc] | high-affinity | + (A450 = 0.3-0.7) | + (A450 = 0.3-0.7) | ++ (A450 = 0.7-1) | >5 | − (A450 < 0.3) | − (A450 < 0.3) | − (A450 < 0.3) | >5 | >5 | – | – | – | – | –
B1 | – | – | – | – | – | – | – | – | – | – | – | – | binding preference for sTa | narrow selectivity for the sTa trisaccharide | sTa-modified proteoglycan 4

Reference: patent publication US20230236193A1, “[…] FOR S[…]” (VANDERBILT UNIVERSITY, priority 2020, published 2023)
